Tests used:
CDK8/cyclin C = CDK8/cyclin C (Homo sapiens (Human), UniProt P49336); test: CDK8 biochemical assay (TR-FRET Kinase Tracer 236 displacement); format: binding; details: 5 nM CDK8/cyclin C, 10 nM Kinase Tracer 236, 60 min
Procedure: This assay is used to identify compounds which competitively interact with the binding pocket of the CDK8 kinase.
Assay-ready plates (ARPs; Proxiplate-384 PLUS, white, PerkinElmer) with compound solution in 100% DMSO are generated on an Access Labcyte Workstation with the Labcyte Echo 55x. 150 nL of compound solution are transferred per well in 11 concentrations in duplicates with serial 1:5 dilutions. The final DMSO concentration in the assay is 1%.
5 nM (final assay concentration) CDK8/cyclin C, 2 nM (final assay concentration) Biotin anti-His Tag Antibody and 2 nM (final assay concentration) LanthaScreen Eu-Streptavidin are mixed in assay buffer (50 mM HEPES pH 7.3, 10 mM MgCl2, 1 mM EGTA, 0.01% Brij-35, 0.05% BSA, 1 mM DTT) prior to use and kept at room temperature.
The assay runs on a fully automated robotic system. 10 μL of CDK8/cyclin C, Biotin anti-His Tag Antibody and LanthaScreen Eu-Streptavidin mix are dispensed into columns 1-24. 5 μL of 10 nM (final assay concentration) Kinase Tracer 236 solution in assay buffer are added to columns 1-23, 5 μL of assay buffer into column 24. Plates are kept at room temperature in a darkened incubator. After 60 min incubation time the signal is measured in a PerkinElmer Envision HTS Multilabel Reader using the TR-FRET specs from PerkinElmer.
Each plate contains 16 wells of a negative control (diluted DMSO instead of test compound; CDK8/cyclin C, Biotin anti-His Tag Antibody and LanthaScreen Eu-Streptavidin mix w Kinase Tracer 236; column 23) and 16 wells of a positive control (diluted DMSO instead of test compound; CDK8/cyclin C, Biotin anti-His Tag Antibody and LanthaScreen Eu-Streptavidin mix w/o Kinase Tracer 236; column 24). A known inhibitor of CDK8/cyclin C binding is used as internal control. IC50 values are calculated and analyzed in the MEGALAB IC50 application using a 4 parametric logistic model.
Table 4 includes IC50 values of example compounds determined using the above assay.

[1] = Metabolic (microsomal) stability assay, human liver microsomes; format: in vitro ADME; details: predicted clearance as percent of liver blood flow; human liver microsomes 1 mg/mL, 1 μM compound, 37° C.
Procedure: (§1) Metabolic (Microsomal) Stability Assay
(§2) The metabolic degradation of the test compound is assayed at 37° C. with pooled liver microsomes (mouse (MLM), rat (RLM) or human (HLM)). The final incubation volume of 74 μL per time point contains TRIS buffer (pH 7.5; 0.1 M), magnesium chloride (6.5 mM), microsomal protein (0.5 mg/mL for mouse/rat, 1 mg/mL for human specimens) and the test compound at a final concentration of 1 μM. Following a short preincubation period at 37° C., the reactions are initiated by addition of 8 μL beta-nicotinamide adenine dinucleotide phosphate, reduced form (NADPH, 10 mM) and terminated by transferring an aliquot into solvent after different time points. Additionally, the NADPH-independent degradation is monitored in incubations without NADPH, terminated at the last time point by addition of acetonitril. The quenched incubations are pelleted by centrifugation (1811 g, 5 min). An aliquot of the supernatant is assayed by LC-MS/MS for the amount of parent compound.
(§3) In vitro intrinsic clearance (CLint,in vitro) is calculated from the time course of the disappearance of the test drug during the microsomal incubation. Each plot is fitted to the first-order elimination rate constant as C(t)=C0*exp(−ke*t), where C(t) and C0 are the concentration of unchanged test drug at incubation time t and that at preincubation and ke is the disappearance rate constant of the unchanged drug. Subsequently, CLint,in vitro (μL·min^−1·amount protein) values are converted to CLint,in vitro (mL·min^−1·kg^−1) for the whole body. CLint,in vitro data are scaled up using physiological parameters. For better across species comparison the predicted clearance is expressed as percent of the liver blood flow [% QH] in the individual species. In general high stability (corresponding to low % QH) of the compounds across species is desired.

[2] = Metabolic (microsomal) stability assay, mouse liver microsomes; format: in vitro ADME; details: predicted clearance as percent of liver blood flow; mouse liver microsomes 0.5 mg/mL, 1 μM compound, 37° C.
Procedure: as §1, §2, §3

[3] = Metabolic (microsomal) stability assay, rat liver microsomes; format: in vitro ADME; details: predicted clearance as percent of liver blood flow; rat liver microsomes 0.5 mg/mL, 1 μM compound, 37° C.
Procedure: as §1, §2, §3

Sequence of CDK8/cyclin C (P49336 whole entry): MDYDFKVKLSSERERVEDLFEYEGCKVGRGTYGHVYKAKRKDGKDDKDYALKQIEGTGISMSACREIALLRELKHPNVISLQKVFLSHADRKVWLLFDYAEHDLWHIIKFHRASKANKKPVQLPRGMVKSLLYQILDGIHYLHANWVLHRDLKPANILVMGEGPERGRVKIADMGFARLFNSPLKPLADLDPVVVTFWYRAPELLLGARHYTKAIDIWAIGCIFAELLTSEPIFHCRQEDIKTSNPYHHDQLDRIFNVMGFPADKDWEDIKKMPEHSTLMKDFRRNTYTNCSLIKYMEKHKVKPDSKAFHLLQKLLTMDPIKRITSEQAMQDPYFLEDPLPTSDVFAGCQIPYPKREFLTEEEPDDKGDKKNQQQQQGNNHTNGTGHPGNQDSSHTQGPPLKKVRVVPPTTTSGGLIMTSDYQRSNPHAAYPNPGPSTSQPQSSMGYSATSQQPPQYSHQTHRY
Sequence of CDK8/cyclin C (P24863 whole entry partner): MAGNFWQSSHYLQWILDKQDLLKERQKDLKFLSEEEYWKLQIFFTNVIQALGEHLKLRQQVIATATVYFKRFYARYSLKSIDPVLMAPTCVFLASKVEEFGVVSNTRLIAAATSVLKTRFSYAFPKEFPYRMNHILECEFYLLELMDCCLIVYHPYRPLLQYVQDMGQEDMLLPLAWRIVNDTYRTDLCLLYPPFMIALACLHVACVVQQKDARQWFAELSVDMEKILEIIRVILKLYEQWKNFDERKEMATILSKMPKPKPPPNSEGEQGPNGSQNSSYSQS

Row | Compound | IC50 (CDK8/cyclin C) | HLM [% QH] [1] | MLM [% QH] [2] | RLM [% QH] [3]
1 | CN(C)C(=O)[C@H]1CCN(c2ccc(Oc3ccnc4ccncc34)cc2)C1 [I-006] | 1.6 nM |  |  | 
2 | CC(=O)N1CCN(c2ccc(Oc3ccnc4ccncc34)cc2)CC1 [I-031] | 4.7 nM | 28 % QH | 42 % QH | 29 % QH
3 | O=C1CCCN1CCOc1ccc(Oc2ccnc3c(F)cncc23)cc1 [I-037] | 27 nM | <24 % QH | <24 % QH | 47 % QH
4 | O=C([C@H]1CCN(c2ccc(Oc3ccnc4c(Cl)cncc34)cc2)C1)N1CCOCC1 [I-013] | 1.2 nM | 44 % QH | 59 % QH | 
5 | CN(C)C(=O)CCOc1ccc(Oc2ccnc3c(F)cncc23)cc1 [I-036] | 4.8 nM | <24 % QH | <24 % QH | 32 % QH
6 | CC(=O)N(C)CCOc1ccc(Oc2ccnc3c(F)cncc23)cc1 [I-038] | 6.6 nM |  |  | 
7 | CC(=O)N(C)[C@H]1CCN(c2ccc(Oc3ccnc4c(F)cncc34)cc2)C1 [I-024] | 1.4 nM | <24 % QH | <24 % QH | <24 % QH
8 | CC(=O)N1CCN(c2ccc(Oc3cc(N(C)C)nc4ccncc34)cc2)CC1 [I-027] | 4.5 nM |  |  | 
9 | CN(C)C(=O)[C@@H]1CCN(c2ccc(Oc3ccnc4c(F)cncc34)cc2)C1 [I-019] | 1.7 nM | <24 % QH | 28 % QH | 41 % QH
10 | CN(C)C(=O)[C@@H]1CCN(c2ccc(Oc3ccnc4c(Cl)cncc34)cc2)C1 [I-018] | 1.2 nM | 30 % QH | 44 % QH | 55 % QH
11 | CN(C)C(=O)C1CN(c2ccc(Oc3ccnc4c(F)cncc34)cc2)C1 [I-032] | 2.1 nM | 27 % QH | <24 % QH | <24 % QH
12 | CN1CCN(C(=O)[C@H]2CCN(c3ccc(Oc4ccnc5c(Cl)cncc45)cc3)C2)CC1 [I-012] | 1.3 nM |  |  | 
13 | CN1CCC(COc2ccc(Oc3ccnc4c(F)cncc34)cc2)C1=O (centres unmarked) [I-035] | 3.7 nM | <24 % QH | <24 % QH | 35 % QH
14 | CC(=O)NC1CN(c2ccc(Oc3ccnc4c(F)cncc34)cc2)C1 [I-033] | 3.9 nM |  |  | 
15 | Cc1cncc2c(Oc3ccc(N4CC[C@H](C(=O)N(C)C)C4)cc3)ccnc12 [I-014] | 1.7 nM |  |  | 
16 | c1cc2nccc(Oc3ccc(N4CCOCC4)cc3)c2cn1 [I-030] | 14 nM | <24 % QH | 58 % QH | 60 % QH
17 | CN(C)C(=O)[C@H]1CCN(c2ccc(Oc3ccnc4c(Cl)cncc34)cc2)C1 [I-007] | 1.3 nM | <24 % QH | 49 % QH | 66 % QH
18 | c1cc2nccc(Oc3ccc(N4CCCC4)cc3)c2cn1 [I-001] | 3.6 nM |  |  | 
19 | Cc1nccc2nccc(Oc3ccc(N4CCCC4)cc3)c12 [I-005] | 11.2 nM |  |  | 
20 | CN(C)C(=O)Cn1cc(-c2ccc(Oc3ccnc4c(F)cncc34)cc2)cn1 [I-039, 2-{4-[4-(8-fluoro-[1,6]naphthyridin-4-yloxy)-phenyl]-pyrazol-1-yl}-N,N-dimethyl-acetamide] | 2.5 nM | <24 % QH | 26 % QH | <24 % QH
21 | CN(C)C(=O)Cn1cc(-c2ccc(Oc3ccnc4c(Cl)cncc34)cc2)cn1 [I-043] | 2.7 nM | <24 % QH | 25 % QH | 42 % QH
22 | CN(CCO)C(=O)[C@H]1CCN(c2ccc(Oc3ccnc4c(F)cncc34)cc2)C1 [I-017, (S)-1-[4-(8-fluoro-[1,6]naphthyridin-4-yloxy)-phenyl]-pyrrolidine-3-carboxylic acid (2-hydroxy-ethyl)-methyl-amide] | 1.8 nM | <24 % QH | <24 % QH | 24 % QH
23 | CC(=O)N[C@H]1CCN(c2ccc(Oc3ccnc4c(F)cncc34)cc2)C1 [I-023] | 2.1 nM | <24 % QH | <24 % QH | <24 % QH
24 | CN(CCO)C(=O)[C@@H]1CCN(c2ccc(Oc3ccnc4c(F)cncc34)cc2)C1 [I-020] | 1.4 nM | <24 % QH | <24 % QH | <24 % QH
25 | CN1CCN(C(=O)[C@@H]2CCN(c3ccc(Oc4ccnc5c(F)cncc45)cc3)C2)CC1 [I-021] | < 1 nM |  |  | 

Continued by falling IC50 (CDK8/cyclin C), values first:

Row | IC50 (CDK8/cyclin C) | HLM [% QH] [1] | MLM [% QH] [2] | RLM [% QH] [3] | Compound
26 | 16.6 nM | 29 % QH | 36 % QH | 57 % QH | Fc1cncc2c(Oc3ccc(N4CCn5ccnc5C4)cc3)ccnc12 [I-029]
27 | 14 nM |  |  |  | COc1cc(Oc2ccc(N3CCN(C(C)=O)CC3)cc2)c2cnccc2n1 [I-034]
28 | 11.1 nM |  |  |  | CN1CCN(c2ccc(Oc3ccnc4ccncc34)cc2)CC1 [I-028]
29 | 8.3 nM | <24 % QH | <24 % QH | <24 % QH | N[C@H]1CCN(c2ccc(Oc3ccnc4c(F)cncc34)cc2)C1 [I-022]
30 | 5 nM |  |  |  | Cc1cncc2c(Oc3ccc(-c4cnn(CC(=O)N(C)C)c4)cc3)ccnc12 [I-041]
31 | 3.7 nM |  |  |  | Cc1cncc2c(Oc3ccc(N4CCCC4)cc3)ccnc12 [I-004]
32 | 3.4 nM |  |  |  | Fc1cncc2c(Oc3ccc(N4CCCC4)cc3)ccnc12 [I-002]
33 | 2.9 nM | <24 % QH | <24 % QH | 25 % QH | CC(=O)N[C@@H]1CCN(c2ccc(Oc3ccnc4c(F)cncc34)cc2)C1 [I-026]
34 | 2.6 nM | 27 % QH | 45 % QH | 32 % QH | CN(C)C(=O)Cn1cc(-c2ccc(Oc3ccnc4ccncc34)cc2)cn1 [I-040]
35 | 2.4 nM |  |  |  | Clc1cncc2c(Oc3ccc(N4CCCC4)cc3)ccnc12 [I-003]
36 | 1.6 nM |  |  |  | O=C1CCCN1[C@H]1CCN(c2ccc(Oc3ccnc4c(F)cncc34)cc2)C1 [I-025]
37 | 1.5 nM |  |  |  | COCCN(C)C(=O)[C@H]1CCN(c2ccc(Oc3ccnc4c(Cl)cncc34)cc2)C1 [I-011]
38 | 1.5 nM | <24 % QH | <24 % QH | 43 % QH | CN(C)C(=O)[C@H]1CCN(c2ccc(Oc3ccnc4c(F)cncc34)cc2)C1 [I-015]
39 | 1.3 nM | 50 % QH | 57 % QH |  | CN(CCO)C(=O)[C@H]1CCN(c2ccc(Oc3ccnc4c(Cl)cncc34)cc2)C1 [I-010]
40 | 1.2 nM |  |  |  | CN1CCN(C(=O)[C@H]2CCN(c3ccc(Oc4ccnc5c(F)cncc45)cc3)C2)CC1 [I-016]

Source: patent US11261184B2, “[1,6]naphthyridine compounds and derivatives as CDK8/CDK19 inhibitors” (Boehringer Ingelheim International GmbH, priority 2017, dated 2022)
